{"source": "PubChem BioAssay AID274", "about": "(DTP/NCI, 2004)", "tested_on": "BDF1 mice, Lewis lung carcinoma iv, survival T/C", "test": "NCI In Vivo Anticancer Drug Screen. Data for tumor model Lewis Lung Carcinoma (intravenous) in B6D2F1 (BDF1) mice", "details": "endpoint: median survival time, higher = longer survival", "description": "The antitumor activity of compounds was measured in mice bearing transplantable tumors. Survival or tumor size were measured and the results are expressed as the measurement made in the treated group (T) divided by the measurement made in the vehicle treated control group (C). The tumor model used in this assay is Lewis Lung Carcinoma (intravenous) in B6D2F1 (BDF1) mice", "key": {"[1]": {"details": "dose: 25.0 mg/kg/injection, schedule: Q01DX009 (ip), vehicle: saline"}, "[2]": {"details": "dose: 50.0 mg/kg/injection, schedule: Q01DX009 (ip), vehicle: saline"}, "[3]": {"details": "dose: 3.12 mg/kg/injection, schedule: Q01DX009 (ip), vehicle: saline"}, "[4]": {"details": "dose: 6.25 mg/kg/injection, schedule: Q01DX009 (ip), vehicle: saline"}, "[5]": {"details": "dose: 12.5 mg/kg/injection, schedule: Q01DX009 (ip), vehicle: saline"}, "[6]": {"details": "dose: 1.56 mg/kg/injection, schedule: Q01DX009 (ip), vehicle: saline with Tween-80"}, "[7]": {"details": "dose: 3.12 mg/kg/injection, schedule: Q01DX009 (ip), vehicle: saline with Tween-80"}, "[8]": {"details": "dose: 6.25 mg/kg/injection, schedule: Q01DX009 (ip), vehicle: saline with Tween-80"}, "[9]": {"details": "dose: 12.5 mg/kg/injection, schedule: Q01DX009 (ip), vehicle: saline with Tween-80"}, "[10]": {"details": "dose: 25.0 mg/kg/injection, schedule: Q01DX009 (ip), vehicle: saline with Tween-80"}, "[11]": {"details": "dose: 50.0 mg/kg/injection, schedule: Q01DX009 (ip), vehicle: saline with Tween-80"}, "[12]": {"details": "dose: 1.0 mg/kg/injection, schedule: Q01DX009 (ip), vehicle: saline"}, "[13]": {"details": "dose: 2.0 mg/kg/injection, schedule: Q01DX009 (ip), vehicle: saline"}, "[14]": {"details": "dose: 100.0 mg/kg/injection, schedule: Q01DX009 (ip), vehicle: saline"}, "[15]": {"details": "dose: 50.0 mg/kg/injection, schedule: Q01DX009 (ip), vehicle: Klucel (hydroxypropylcellulose) (HPC)"}, "[16]": {"details": "dose: 100.0 mg/kg/injection, schedule: Q01DX009 (ip), vehicle: Klucel (hydroxypropylcellulose) (HPC)"}}, "note": "Where “and” joins values, the source holds several entries; their conditions need not be identical. Equal values may be shown once. Toxic doses and inconclusive results are not listed."}
{"molecule": "CN(C)CCCNc1c2ccccc2nc2cccc([N+](=O)[O-])c12", "values": [{"measurement": "T/C", "setting": "dose: 44.8 micrograms/kg/injection, schedule: Q04DX003 (ip), vehicle: saline", "result": "92 % of control"}, {"measurement": "T/C", "setting": "dose: 124.0 micrograms/kg/injection, schedule: Q04DX003 (ip), vehicle: saline", "result": "92 % of control"}, {"measurement": "T/C", "setting": "dose: 346.0 micrograms/kg/injection, schedule: Q04DX003 (ip), vehicle: saline", "result": "86 % of control"}]}
{"molecule": "CCC1OCCN1C(C)C", "note": "(stereo not drawn)", "values": [{"measurement": "T/C", "setting": "[1]", "result": "95 % of control"}, {"measurement": "T/C", "setting": "[2]", "result": "124 % of control"}]}
{"molecule": "[CH3][Sn]([CH3])([Cl])[S]CCN", "values": [{"measurement": "T/C", "setting": "[3]", "result": "91 % of control"}, {"measurement": "T/C", "setting": "[4]", "result": "95 % of control"}, {"measurement": "T/C", "setting": "[5]", "result": "97 % of control"}, {"measurement": "T/C", "setting": "[1]", "result": "91 % of control"}]}
{"molecule": "c1ccc2c(c1)nnn1c3cnccc3nc21", "values": [{"measurement": "T/C", "setting": "[6]", "result": "103 % of control"}, {"measurement": "T/C", "setting": "[7]", "result": "90 % of control"}, {"measurement": "T/C", "setting": "[8]", "result": "103 % of control"}, {"measurement": "T/C", "setting": "[9]", "result": "109 % of control"}]}
{"molecule": "Nc1cc2c3c(cccc3c1)C(=O)N(CCN1CCCC1)C2=O", "values": [{"measurement": "T/C", "setting": "[7]", "result": "99 % of control"}, {"measurement": "T/C", "setting": "[8]", "result": "103 % of control"}, {"measurement": "T/C", "setting": "[9]", "result": "103 % of control"}, {"measurement": "T/C", "setting": "[10]", "result": "115 % of control"}, {"measurement": "T/C", "setting": "[11]", "result": "113 % of control"}, {"measurement": "T/C", "setting": "dose: 100.0 mg/kg/injection, schedule: Q01DX009 (ip), vehicle: saline with Tween-80", "result": "119 % of control"}]}
{"molecule": "CCc1nc(N)nc(N)c1-c1ccc(Cl)c([N+](=O)[O-])c1", "values": [{"measurement": "T/C", "setting": "[6]", "result": "100 % of control"}, {"measurement": "T/C", "setting": "[7]", "result": "98 % of control"}, {"measurement": "T/C", "setting": "[8]", "result": "111 % of control"}, {"measurement": "T/C", "setting": "[9]", "result": "111 % of control"}]}
{"molecule": "N/C(=N\\O)c1cn(C2OC(CO)C(O)C2O)c2ncnc(N)c12", "note": "(stereo not drawn)", "values": [{"measurement": "T/C", "setting": "[12]", "result": "91 % of control"}, {"measurement": "T/C", "setting": "[13]", "result": "88 % of control"}, {"measurement": "T/C", "setting": "dose: 4.0 mg/kg/injection, schedule: Q01DX009 (ip), vehicle: saline", "result": "98 % of control"}]}
{"molecule": "C=C(C)[C@@H]1CCc2c(O)c(O)c(=O)cc(C)c2C1", "values": [{"measurement": "T/C", "setting": "[3]", "result": "111 % of control"}, {"measurement": "T/C", "setting": "[4]", "result": "106 % of control"}, {"measurement": "T/C", "setting": "[5]", "result": "96 % of control"}, {"measurement": "T/C", "setting": "[1]", "result": "101 % of control"}, {"measurement": "T/C", "setting": "[2]", "result": "102 % of control"}, {"measurement": "T/C", "setting": "[14]", "result": "101 % of control"}]}
{"molecule": "CN(C)CCNc1ccc([N+](=O)[O-])c2sc3ccccc3c(=O)c12", "values": [{"measurement": "T/C", "setting": "[8]", "result": "106 % of control"}, {"measurement": "T/C", "setting": "[9]", "result": "109 % of control and 112 % of control"}, {"measurement": "T/C", "setting": "[10]", "result": "104 % of control"}, {"measurement": "T/C", "setting": "[11]", "result": "153 % of control"}]}
{"molecule": "COc1cc(C(=O)c2cocc2C(=O)c2ccc3c(c2)OCO3)cc(OC)c1OC", "values": [{"measurement": "T/C", "setting": "[15]", "result": "88 % of control"}, {"measurement": "T/C", "setting": "dose: 400.0 mg/kg/injection, schedule: Q01DX009 (ip), vehicle: Klucel (hydroxypropylcellulose) (HPC)", "result": "94 % of control"}]}
{"molecule": "Nc1nc(=S)c2[nH]cnc2[nH]1", "values": [{"measurement": "T/C", "setting": "dose: 0.25 mg/kg/injection, schedule: Q01DX009 (ip), vehicle: saline", "result": "105 % of control"}, {"measurement": "T/C", "setting": "dose: 0.5 mg/kg/injection, schedule: Q01DX009 (ip), vehicle: saline", "result": "114 % of control"}, {"measurement": "T/C", "setting": "[12]", "result": "107 % of control"}, {"measurement": "T/C", "setting": "[13]", "result": "92 % of control"}]}
{"molecule": "C=C(C)C(=O)OCC1CO1", "note": "(stereo not drawn)", "values": [{"measurement": "T/C", "setting": "[15]", "result": "88 % of control"}, {"measurement": "T/C", "setting": "[16]", "result": "105 % of control"}]}
{"molecule": "OCC1(CO)COC2(CCCCC2)N1", "values": [{"measurement": "T/C", "setting": "[5]", "result": "102 % of control"}, {"measurement": "T/C", "setting": "[1]", "result": "100 % of control"}, {"measurement": "T/C", "setting": "[2]", "result": "102 % of control"}, {"measurement": "T/C", "setting": "[14]", "result": "100 % of control"}, {"measurement": "T/C", "setting": "dose: 200.0 mg/kg/injection, schedule: Q01DX009 (ip), vehicle: saline", "result": "101 % of control"}, {"measurement": "T/C", "setting": "dose: 400.0 mg/kg/injection, schedule: Q01DX009 (ip), vehicle: saline", "result": "103 % of control"}]}
{"molecule": "COc1ccc2[nH]c3ccc4cc[n+](CCN5CCC(C6CCN(CC[n+]7ccc8ccc9[nH]c%10ccc(OC)cc%10c9c8c7)CC6)CC5)cc4c3c2c1", "values": [{"measurement": "T/C", "setting": "dose: 12.5 mg/kg/injection, schedule: Q01DX009 (ip), vehicle: Klucel (hydroxypropylcellulose) (HPC)", "result": "98 % of control"}, {"measurement": "T/C", "setting": "dose: 25.0 mg/kg/injection, schedule: Q01DX009 (ip), vehicle: Klucel (hydroxypropylcellulose) (HPC)", "result": "114 % of control"}]}
{"molecule": "C=CCNc1ccc(C)cc1", "values": [{"measurement": "T/C", "setting": "[16]", "result": "86 % of control"}]}
